Values of other authors, collected in PMC8287861 (Frontiers in Microbiology, 2021).
Values after ≈ are worked out from the molar mass of the structure shown.

Columns and labels:
Set-up in all cases: method as in Lomovskaya et al. (2020b)
PAM4938 VEB-9 = conditions: PAM4938, VEB-9, class A; ref Lomovskaya et al. (2020b)
PAM4790 OXA-10 = conditions: PAM4790, OXA-10, class D; ref Lomovskaya et al. (2020b)
PAM4135 KPC-2 = conditions: PAM4135, KPC-2, class A-CARB; ref Lomovskaya et al. (2020b)
PAM4886 GES-1 = conditions: PAM4886, GES-1, class A; ref Lomovskaya et al. (2020b)
PAM4798 VIM-2 = conditions: PAM4798, VIM-2, class B1; ref Lomovskaya et al. (2020b)
PAM4876 OXA-72 = conditions: PAM4876, OXA-72, class D-CARB; ref Lomovskaya et al. (2020b)
PAM4908 VEB-1 = conditions: PAM4908, VEB-1, class A; ref Lomovskaya et al. (2020b)
PAM4884 ADC-181 = conditions: PAM4884, ADC-181, class C; ref Lomovskaya et al. (2020b)
PAM4689 KPC-3 = conditions: PAM4689, KPC-3, class A-CARB; ref Lomovskaya et al. (2020b)
PAM4885 SPM-1 = conditions: PAM4885, SPM-1, class B1; ref Lomovskaya et al. (2020b)
PAM4907 PER-4 = conditions: PAM4907, PER-4, class A; ref Lomovskaya et al. (2020b)
PAM4883 GIM-1 = conditions: PAM4883, GIM-1, class B1; ref Lomovskaya et al. (2020b)
PAM4186 CMY-2 = conditions: PAM4186, CMY-2, class C; ref Lomovskaya et al. (2020b)
PAM4217 OXA-48 = conditions: PAM4217, OXA-48, class D-CARB; ref Lomovskaya et al. (2020b)
PAM4880 L1 = conditions: PAM4880, L1, class B3; ref Lomovskaya et al. (2020b)
PAM4800 GES-19 = conditions: PAM4800, GES-19, class A; ref Lomovskaya et al. (2020b)
PAM4842 PER-2 = conditions: PAM4842, PER-2, class A; ref Lomovskaya et al. (2020b)
PAM4879 CcrA1 = conditions: PAM4879, CcrA1, class B1; ref Lomovskaya et al. (2020b)
PAM4179 NDM-1 = conditions: PAM4179, NDM-1, class B1; ref Lomovskaya et al. (2020b)
PAM4792 OXA-2 = conditions: PAM4792, OXA-2, class D; ref Lomovskaya et al. (2020b)
PAM4198 IMP-15 = conditions: PAM4198, IMP-15, class B1; ref Lomovskaya et al. (2020b)
PAM4676 BKC-1 = conditions: PAM4676, BKC-1, class A-CARB; ref Lomovskaya et al. (2020b)
PAM4846 OXA-9 = conditions: PAM4846, OXA-9, class D; ref Lomovskaya et al. (2020b)
PAM4887 IMP-1 = conditions: PAM4887, IMP-1, class B1; ref Lomovskaya et al. (2020b)
PAM4869 PDC-1 = conditions: PAM4869, PDC-1, class C; ref Lomovskaya et al. (2020b)
PAM4822 CTX-M-27 = conditions: PAM4822, CTX-M-27, class A; ref Lomovskaya et al. (2020b)

Compound	MIC (PAM4938 VEB-9) [µg/mL]	MIC (PAM4790 OXA-10) [µg/mL]	MIC (PAM4135 KPC-2) [µg/mL]	MIC (PAM4886 GES-1) [µg/mL]	MIC (PAM4798 VIM-2) [µg/mL]	MIC (PAM4876 OXA-72) [µg/mL]	MIC (PAM4908 VEB-1) [µg/mL]	MIC (PAM4884 ADC-181) [µg/mL]	MIC (PAM4689 KPC-3) [µg/mL]	MIC (PAM4885 SPM-1) [µg/mL]	MIC (PAM4907 PER-4) [µg/mL]	MIC (PAM4883 GIM-1) [µg/mL]	MIC (PAM4186 CMY-2) [µg/mL]	MIC (PAM4217 OXA-48) [µg/mL]	MIC (PAM4880 L1) [µg/mL]	MIC (PAM4800 GES-19) [µg/mL]	MIC (PAM4842 PER-2) [µg/mL]	MIC (PAM4879 CcrA1) [µg/mL]	MIC (PAM4179 NDM-1) [µg/mL]	MIC (PAM4792 OXA-2) [µg/mL]	also measured
CC(C)(O/N=C(\C(=O)N[C@@H]1C(=O)N2C(C(=O)[O-])=C(C[n+]3ccccc3)CS[C@H]12)c1csc(N)n1)C(=O)O [Ceftazidime, ceftazidime]	256 (≈ 468 µM)	0.25 (≈ 0.457 µM)	16 (≈ 29.3 µM)	64 (≈ 117 µM)	16 (≈ 29.3 µM)	0.25 (≈ 0.457 µM)	>64	8 (≈ 14.6 µM)	>64	>64	>64	>64	16 (≈ 29.3 µM)	0.25 (≈ 0.457 µM)	64 (≈ 117 µM)	>64	>64	4 (≈ 7.32 µM)	>64	8 (≈ 14.6 µM)	MIC (PAM4198 IMP-15): 64 µg/mL (≈ 117 µM); MIC (PAM4676 BKC-1): 3 µg/mL (≈ 5.49 µM); MIC (PAM4846 OXA-9): 0.25 µg/mL (≈ 0.457 µM); MIC (PAM4887 IMP-1): >64 µg/mL; MIC (PAM4869 PDC-1): 16 µg/mL (≈ 29.3 µM); MIC (PAM4822 CTX-M-27): 64 µg/mL (≈ 117 µM)
CCN1CCN(C(=O)N[C@@H](C(=O)N[C@@H]2C(=O)N3[C@@H]2SC(C)(C)[C@@H]3C(=O)O)c2ccccc2)C(=O)C1=O [Piperacillin, piperacillin]	16 (≈ 30.9 µM)	0.125 (≈ 0.242 µM)	>64	4 (≈ 7.73 µM)	16 (≈ 30.9 µM)	16 (≈ 30.9 µM)	8 (≈ 15.5 µM)	1 (≈ 1.93 µM)	>64	32 (≈ 61.8 µM)	0.5 (≈ 0.966 µM)	>64	8 (≈ 15.5 µM)	16 (≈ 30.9 µM)	32 (≈ 61.8 µM)	8 (≈ 15.5 µM)	1 (≈ 1.93 µM)	0.25 (≈ 0.483 µM)	64 (≈ 124 µM)	64 (≈ 124 µM)	MIC (PAM4198 IMP-15): 0.5 µg/mL (≈ 0.966 µM); MIC (PAM4676 BKC-1): 32 µg/mL (≈ 61.8 µM); MIC (PAM4846 OXA-9): 8 µg/mL (≈ 15.5 µM); MIC (PAM4887 IMP-1): 1 µg/mL (≈ 1.93 µM); MIC (PAM4869 PDC-1): >64 µg/mL; MIC (PAM4822 CTX-M-27): >64 µg/mL
